{"source": "patent US12383623B2", "about": "“Liquid pharmaceutical compositions of polypeptide conjugates and methods of uses thereof” (BEIJING QL BIOPHARMACEUTICAL CO., LTD., priority 2022, dated 2025)", "key": {"[1]": {"target": "GLP-1 receptor (Homo sapiens, UniProt P43220)", "sequence (P43220 24-463, species assumed)": "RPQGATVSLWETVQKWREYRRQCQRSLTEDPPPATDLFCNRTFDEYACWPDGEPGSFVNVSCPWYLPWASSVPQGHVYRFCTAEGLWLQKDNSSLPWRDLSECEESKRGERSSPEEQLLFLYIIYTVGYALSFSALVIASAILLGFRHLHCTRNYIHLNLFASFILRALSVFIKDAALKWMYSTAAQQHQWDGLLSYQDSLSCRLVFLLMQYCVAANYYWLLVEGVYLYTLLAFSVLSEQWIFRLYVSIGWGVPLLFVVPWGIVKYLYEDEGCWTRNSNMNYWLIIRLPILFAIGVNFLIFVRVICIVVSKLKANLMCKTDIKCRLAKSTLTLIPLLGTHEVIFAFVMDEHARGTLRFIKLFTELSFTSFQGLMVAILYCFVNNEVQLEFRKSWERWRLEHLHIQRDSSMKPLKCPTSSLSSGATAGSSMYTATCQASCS", "settings": "J. Med. Chem. 2015, 58, 7370-7380; cited from earlier work"}, "[2]": {"test": "Body weight loss in C57 lean mice after a single s.c. dose", "type": "in vivo, C57BL/6 mice", "settings": "30 nmol/kg s.c. once", "description": "Method: 10 week old male C57BL/6 mice were injected subcutaneously with protein once on Day1. Body weight was measured daily and five animals were used for each treatment group. Body weight was monitored for each individual animal. % BW loss=100*(BW on Day n-BW on Day 1)/(BW on Day 1). […] The area under the curve for body weight loss (%) from 0 until 8 days (AUC ΔBW 0-8d) was calculated."}, "[3]": {"test_system": "db/db mice", "test": "Non-fasting glucose in db/db mice after a single s.c. dose", "type": "in vivo", "description": "Method: 10 weeks old male db/db mice were injected subcutaneously with GLP-1 polypeptide conjugate once. […] Delta blood glucose is glucose subtracted by baseline level. […] The area under the curve for delta blood glucose from 0 until 192 hours (AUCΔ8G 0-192 h) was calculated."}, "[4]": {"target": "human serum albumin (Homo sapiens, UniProt P02768)", "sequence (P02768 25-609)": "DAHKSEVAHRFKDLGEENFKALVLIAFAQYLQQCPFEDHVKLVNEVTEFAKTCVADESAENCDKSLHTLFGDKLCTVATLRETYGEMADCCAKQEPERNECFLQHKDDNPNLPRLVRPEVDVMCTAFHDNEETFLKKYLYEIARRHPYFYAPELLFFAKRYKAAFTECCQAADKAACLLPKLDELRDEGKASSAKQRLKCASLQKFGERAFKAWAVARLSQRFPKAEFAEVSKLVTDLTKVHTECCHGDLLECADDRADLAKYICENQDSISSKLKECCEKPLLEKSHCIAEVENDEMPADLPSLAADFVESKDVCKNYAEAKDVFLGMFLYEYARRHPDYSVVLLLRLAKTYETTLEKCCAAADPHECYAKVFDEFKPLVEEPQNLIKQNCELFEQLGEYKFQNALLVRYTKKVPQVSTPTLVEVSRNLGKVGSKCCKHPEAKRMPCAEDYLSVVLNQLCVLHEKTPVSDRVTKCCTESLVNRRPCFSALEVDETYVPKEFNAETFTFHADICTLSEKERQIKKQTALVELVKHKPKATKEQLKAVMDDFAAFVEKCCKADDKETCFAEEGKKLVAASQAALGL", "test": "Human serum albumin binding by surface plasmon resonance (Biacore 8K)", "settings": "human serum albumin bound to CM5 chip", "method": "Method: Binding of molecules to serum albumin was characterized by surface plasmon resonance in a Biacore 8K instrument. Serum albumin from different species was covalently bound to CM5 sensor chips surface until 4000 RU was reached. The chip was blocked by 1M ethanolamine with flowrate of 10 μL/min for 420 s. Each molecule sample was diluted and injected at a flow rate of 30 μL/min to allow for binding to chip-bound albumin for 120 s and for dissociation for 300 s. Binding buffer without molecule was sent over the chip at the flow rate of 20 seconds to allow spontaneous dissociation of bound molecule for 30 seconds."}}}
{"substance": "Semaglutide [reference compound]", "values": [{"measurement": "Loss in GLP-1 receptor binding in presence of human serum albumin relative to unconjugated counterpart", "setting": "[1]", "result": 939, "unit": "fold"}, {"measurement": "AUC ΔBW 0-8 d", "setting": "[2]; Study 1 (FIG. 1A)", "result": "−9.3", "unit": "day*%"}, {"measurement": "AUC ΔBW 0-8 d", "setting": "[2]; Study 2 (FIG. 1B)", "result": "−13.2", "unit": "day*%"}, {"measurement": "AUCΔBG 0-192 h", "setting": "[3]; 3 nmol/kg s.c. once", "result": -317.0, "unit": "mmol·h/L"}, {"measurement": "AUCΔBG 0-192 h", "setting": "[3]; 10 nmol/kg s.c. once", "result": -583.4, "unit": "mmol·h/L"}, {"measurement": "AUCΔBG 0-192 h", "setting": "[3]; 30 nmol/kg s.c. once", "result": -527.1, "unit": "mmol·h/L"}, {"measurement": "Rmax", "setting": "[4]", "result": 55.2, "unit": "RU"}]}
